Assay results reported in patent US8653276B2 (SANOFI, priority 2008, dated 2014).
Counter-ions that a name gives are not always drawn.

System: not given
Assay: not given

First: Cc1ccccc1-c1ccc(C(=O)N[C@@H](CCO)C(C)(C)C)nc1-c1ccc(Cl)c(OCCCN(C)C)c1 (as salt: hydrochloride)
Second: COC(=O)C1(NC(=O)c2ccc(-c3ccccc3C)c(-c3ccc(Cl)c(OCCCN(C)C)c3)n2)CCCCC1 (as salt: hydrochloride) [Compound 4, methyl 1-({[6-{4-chloro-3-[3-(dimethylamino)propoxy]phenyl}-5-(2-methylphenyl)pyridin-2-yl]carbonyl}amino)cyclohexanecarboxylate]
The melting point of the first is lower: 93 °C for the first, 115 °C for the second.

Compared with `COC(=O)C1(NC(=O)c2ccc(-c3ncc(Cl)cc3Cl)c(-c3ccc(Cl)c(OCCCN(C)C)c3)n2)CCCCC1` (as salt: hydrochloride) [Compound 1, methyl 1-{[(3,5-dichloro-2′-{4-chloro-3-[3-(dimethylamino)propoxy]phenyl}-2,3′-bipyridin-6′-yl)carbonyl]amino}cyclohexanecarboxylate], `COC(=O)C1(NC(=O)c2ccc(-c3ncc(C)cc3Cl)c(-c3ccc(Cl)c(OCCCN(C)C)c3)n2)CCCCC1` (as salt: hydrochloride) [Compound 5, methyl 1-{[(3-chloro-2′-{4-chloro-3-[3-(dimethylamino)propoxy]phenyl}-5-methyl-2,3′-bipyridin-6′-yl)carbonyl]amino}cyclohexanecarboxylate] is lower in melting point: 168 °C for the first, 152 °C for the second.

First: COC(=O)C1(NC(=O)c2ccc(-c3ccc(O)cc3C)c(-c3ccc(Cl)c(OCCCN(C)C)c3)n2)CCCCC1 (as salt: hydrochloride) [Compound 2, methyl 1-({[6-{4-chloro-3-[3-(dimethylamino)propoxy]phenyl}-5-(4-hydroxy-2-methylphenyl)pyridin-2-yl]carbonyl}amino)cyclohexanecarboxylate]
Second: COC(=O)C1(NC(=O)c2ccc(-c3cc(C4CC4)ccc3C)c(-c3ccc(Cl)c(OCCCN(C)C)c3)n2)CCCCC1 (as salt: hydrochloride) [Compound 7, methyl 1-({[6-{4-chloro-3-[3-(dimethylamino)propoxy]phenyl}-5-(5-cyclopropyl-2-methylphenyl)pyridin-2-yl]carbonyl}amino)cyclohexanecarboxylate]
The melting point of the first is higher: 270 °C for the first, 114 °C for the second.

Compared with `CCCOc1ccc(Cl)c(-c2ccc(C(=O)NC3(C(=O)OC)CCCCC3)nc2-c2ccc(Cl)c(OCCCN(C)C)c2)c1` (as salt: hydrochloride) [Compound 9, methyl 1-({[6-{4-chloro-3-[3-(dimethylamino)propoxy]phenyl}-5-(2-chloro-5-propoxyphenyl)pyridin-2-yl]carbonyl}amino)cyclohexanecarboxylate], `COC(=O)C1(NC(=O)c2ccc(-c3ncc(C)cc3C)c(-c3ccc(Cl)c(OCCCN(C)C)c3)n2)CCCCC1` (as salt: hydrochloride) [Compound 13, methyl 1-{[(2′-{4-chloro-3-[3-(dimethylamino)propoxy]phenyl}-3,5-dimethyl-2,3′-bipyridin-6′-yl)carbonyl]amino}cyclohexanecarboxylate] is higher in melting point: 117 °C for the first, 176 °C for the second.

Work on `COC(=O)C1(NC(=O)c2ccc(-c3cc4c(cc3C)OCO4)c(-c3ccc(Cl)c(OCCCN(C)C)c3)n2)CCCCC1` (as salt: hydrochloride) [Compound 11, methyl 1-({[6-{4-chloro-3-[3-(dimethylamino)propoxy]phenyl}-5-(6-methyl-1,3-benzodioxol-5-yl)pyridin-2-yl]carbonyl}amino)cyclohexanecarboxylate] yielded a melting point of 138 °C.

Molecular target: T1, human GPR14 receptor (Homo sapiens, UniProt Q9UKP6)
T1 sequence (Q9UKP6 1-389): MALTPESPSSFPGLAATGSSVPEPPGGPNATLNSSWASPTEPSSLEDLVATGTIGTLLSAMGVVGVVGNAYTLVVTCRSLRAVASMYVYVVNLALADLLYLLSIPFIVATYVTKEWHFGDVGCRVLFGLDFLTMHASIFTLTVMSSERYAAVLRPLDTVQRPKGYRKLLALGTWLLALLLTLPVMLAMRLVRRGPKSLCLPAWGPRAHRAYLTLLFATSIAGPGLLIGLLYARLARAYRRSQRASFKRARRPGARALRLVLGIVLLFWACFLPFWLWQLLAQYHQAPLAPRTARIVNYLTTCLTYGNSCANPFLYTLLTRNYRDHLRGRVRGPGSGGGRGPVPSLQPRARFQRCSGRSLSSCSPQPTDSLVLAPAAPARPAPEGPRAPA
Assay: cell-based
Method: GPR14 is a 7-domain transmembrane receptor coupled to Gq. Its activation with a specific ligand causes an increase in Ca^2+ in the cell via the PLC (phospholipase C), IP3 (inositol-1,4,5-triphosphate) DAG (diacylglycerol) route.
The increase in Ca^2+ in the cell is measured using a Fluo4AM permeating probe (monoexcitation, monoemission probe) which binds to the free Ca^2+ and emits at 520 nm. The free probe is nonfluorescent in the absence of Ca^2+.
Experiment Plan • 1) Seeding of the cells on D-1 (day-1) or D-2 • 2) Incorporation/charge (D0) of the probe (1 h) • 3) Addition of the products to the FlipR and measurement • 4) Addition of the ligand to the FlipR and measurement in the presence of the products • 5) Processing and exportation of the data
The cells are cultured in whole medium in a T225 flask. For the experiments, the cells are subcultured in 200 μl of culture medium in transparent-bottomed black 96-well plates at a rate of 60 000 cells/well for a use on D+1 or 40 000 cells/well for a use on D+2.
Fluo-4AM is prepared at 20 mM and then divided into aliquots (50 μl) and stored at −20° C. sheltered from light. A solution of pluronic acid at 200 mg/ml in DMSO is also prepared (it keeps for one week at room temperature sheltered from light).
The cells are charged with the mixture of Fluo-4AM+pluronic acid (aliquots of 50 μl+50 μl of pluronic acid) diluted to 1/100 in the measuring buffer.
After washing the wells with 150 μl of measuring buffer (cf. appendix), the cells are then charged in the following manner: • distribution of 100 μl of measuring buffer into each well • addition of 10 μl of the Fluo-4AM+pluronic acid mixture diluted to 1/100.
The cells are incubated for 1 hour at 37° C. sheltered from light, in an incubator in the presence of 5% CO2.
The cells are then washed 3 times with 150 μl of measuring buffer to remove the excess probe. A volume of 150 μl of buffer is added to each well at the end of washing.
After incubating the plates for 20 minutes at room temperature sheltered from light, they are placed in the FlipR for the fluorescence measurement.
The basic level of incorporation of the Fluo-4 is checked for each plate (sd<10%) before the first injection.
After stabilizing the base signal, the GPR14 inhibitor compounds are injected via the FlipR in a volume of 50 μl using a dilution plate prepared with Biomek 2000 as measuring buffer.
The data are recorded continuously throughout the experiment.
For each plate, the base fluorescence before injection of the compounds is normalized via the “spatial uniformity correction” function of the FlipR. […] In each plate, a series of wells is treated with urotensin alone in the absence of inhibitor compound.
The percentage of inhibition for each concentration of product is calculated as described below: Inhibition(%)=100×(delta Uro II−delta product)/delta Uro II

Going from `COC(=O)C1(NC(=O)c2ccc(-c3ncc(Cl)cc3Cl)c(-c3ccc(Cl)c(OCCCN(C)C)c3)n2)CCCCC1` [Compound 1, methyl 1-{[(3,5-dichloro-2′-{4-chloro-3-[3-(dimethylamino)propoxy]phenyl}-2,3′-bipyridin-6′-yl)carbonyl]amino}cyclohexanecarboxylate] to `COC(=O)C1(NC(=O)c2ccc(-c3ncc(C)cc3Cl)c(-c3ccc(Cl)c(OCCCN(C)C)c3)n2)CCCCC1` [Compound 5, methyl 1-{[(3-chloro-2′-{4-chloro-3-[3-(dimethylamino)propoxy]phenyl}-5-methyl-2,3′-bipyridin-6′-yl)carbonyl]amino}cyclohexanecarboxylate], the IC50 falls from 1.6 µM to 0.54 µM (3-fold).

Compared with `COC(=O)C1(NC(=O)c2ccc(-c3ccc(O)cc3C)c(-c3ccc(Cl)c(OCCCN(C)C)c3)n2)CCCCC1` [Compound 2, methyl 1-({[6-{4-chloro-3-[3-(dimethylamino)propoxy]phenyl}-5-(4-hydroxy-2-methylphenyl)pyridin-2-yl]carbonyl}amino)cyclohexanecarboxylate], `COC(=O)C1(NC(=O)c2ccc(-c3ccccc3C)c(-c3ccc(Cl)c(OCCCN(C)C)c3)n2)CCCCC1` [Compound 4, methyl 1-({[6-{4-chloro-3-[3-(dimethylamino)propoxy]phenyl}-5-(2-methylphenyl)pyridin-2-yl]carbonyl}amino)cyclohexanecarboxylate] is 2.7-fold lower in IC50: 1.7 µM for the first, 0.63 µM for the second.

First: COC(=O)C1(NC(=O)c2ccc(-c3cc(C4CC4)ccc3C)c(-c3ccc(Cl)c(OCCCN(C)C)c3)n2)CCCCC1 [Compound 7, methyl 1-({[6-{4-chloro-3-[3-(dimethylamino)propoxy]phenyl}-5-(5-cyclopropyl-2-methylphenyl)pyridin-2-yl]carbonyl}amino)cyclohexanecarboxylate]
Second: COC(=O)C1(NC(=O)c2ccc(-c3cc4c(cc3C)OCO4)c(-c3ccc(Cl)c(OCCCN(C)C)c3)n2)CCCCC1 [Compound 11, methyl 1-({[6-{4-chloro-3-[3-(dimethylamino)propoxy]phenyl}-5-(6-methyl-1,3-benzodioxol-5-yl)pyridin-2-yl]carbonyl}amino)cyclohexanecarboxylate]
The IC50 of the first is 1.7-fold lower: 0.33 µM for the first, 0.566 µM for the second. The first is the more potent here.

Going from `CCCOc1ccc(Cl)c(-c2ccc(C(=O)NC3(C(=O)OC)CCCCC3)nc2-c2ccc(Cl)c(OCCCN(C)C)c2)c1` [Compound 9, methyl 1-({[6-{4-chloro-3-[3-(dimethylamino)propoxy]phenyl}-5-(2-chloro-5-propoxyphenyl)pyridin-2-yl]carbonyl}amino)cyclohexanecarboxylate] to `COC(=O)C1(NC(=O)c2ccc(-c3ncc(C)cc3C)c(-c3ccc(Cl)c(OCCCN(C)C)c3)n2)CCCCC1` [Compound 13, methyl 1-{[(2′-{4-chloro-3-[3-(dimethylamino)propoxy]phenyl}-3,5-dimethyl-2,3′-bipyridin-6′-yl)carbonyl]amino}cyclohexanecarboxylate], the IC50 falls from 1.4 µM to 0.846 µM (1.7-fold).

Going from `COC(=O)C1(NC(=O)c2ccc(-n3nc(C)cc3C)c(-c3ccc(Cl)c(OCCCN(C)C)c3)n2)CCCCC1` [Compound 18, methyl 1-({[6-{4-chloro-3-[3-(dimethylamino)propoxy]phenyl}-5-(3,5-dimethyl-1H-pyrazol-1-yl)pyridin-2-yl]carbonyl}amino)cyclohexanecarboxylate] to `COC(=O)C1(NC(=O)c2cnc(-c3ccc(C)cc3C)c(-c3ccc(Cl)c(OCCCN(C)C)c3)n2)CCCCC1` [Compound 20, methyl 1-({[6-{4-chloro-3-[3-(dimethylamino)propoxy]phenyl}-5-(2,4-dimethylphenyl)pyrazin-2-yl]carbonyl}amino)cyclohexanecarboxylate], the IC50 falls from 1.08 µM to 0.116 µM (9.3-fold).

First: CCOc1ccc(Cl)c(-c2ncc(C(=O)N[C@@H](CC(=O)OC)C(C)(C)C)nc2-c2ccc(Cl)c(OCCCN(C)C)c2)c1 [Compound 24, methyl(3S)-3-({[6-{4-chloro-3-[3-(dimethylamino)propoxy]phenyl}-5-(2-chloro-5-ethoxyphenyl)pyrazin-2-yl]carbonyl}amino)-4,4-dimethylpentanoate]
Second: CCOC(=O)C[C@H](NC(=O)c1ccc(-c2ccccc2C)c(-c2ccc(Cl)c(OCCCN(C)C)c2)n1)C(C)(C)C [Compound 29, ethyl(3S)-3-({[6-{4-chloro-3-[3-(dimethylamino)propoxy]phenyl}-5-(2-methylphenyl)pyridin-2-yl]carbonyl}amino)-4,4-dimethylpentanoate]
The IC50 of the first is 2.5-fold lower: 0.102 µM for the first, 0.253 µM for the second. The first is the more potent here.

First: COC(=O)C1(NC(=O)c2ccc(-c3ccccc3Cl)c(-c3ccc(Cl)c(OCCCN(C)C)c3)n2)C2CC3CC(C2)CC1C3 (stereo not shown) [Compound 26, methyl 2-({[6-{4-chloro-3-[3-(dimethylamino)propoxy]phenyl}-5-(2-chlorophenyl)pyridin-2-yl]carbonyl}amino)adamantane-2-carboxylate]
Second: COC(=O)[C@]1(NC(=O)c2ccc(-c3ccccc3C)c(-c3ccc(Cl)c(OCCCN(C)C)c3)n2)CC[C@@H](O)CC1 [Compound 42, methyl cis-1-({[6-{4-chloro-3-[3-(dimethylamino)propoxy]phenyl}-5-(2-methylphenyl)pyridin-2-yl]carbonyl}amino)-4-hydroxycyclohexanecarboxylate]
The IC50 of the first is 1.8-fold higher: 0.17 µM for the first, 0.095 µM for the second.

`CNC(=O)C[C@H](NC(=O)c1ccc(-c2ccccc2C)c(-c2ccc(Cl)c(OCCCN(C)C)c2)n1)C(C)(C)C` [Compound 33, 6-{4-chloro-3-[3-(dimethylamino)propoxy]phenyl}-N-{(1S)-2,2-dimethyl-1-[2-(methylamino)-2-oxoethyl]propyl}-5-(2-methylphenyl)pyridine-2-carboxamide] and `COC(=O)[C@]1(NC(=O)c2ccc(-c3ncc(C)cc3Cl)c(-c3ccc(Cl)c(OCCCN(C)C)c3)n2)CC[C@@H](O)CC1` [Compound 44, methyl cis-1-{[(3-chloro-2′-{4-chloro-3-[3-(dimethylamino)propoxy]phenyl}-5-methyl-2,3′-bipyridin-6′-yl)carbonyl]amino}-4-hydroxycyclohexanecarboxylate] are within 1.5-fold of each other in IC50: 0.45 µM for the first, 0.66 µM for the second.
